We go through five substances from patent publication US6169074A, “Peptide inhibitors of neurotransmitter secretion by neuronal cells” (The Regents of the University of California, priority 1997, dated 2001).

Test [1] has as its system catecholamine release from permeabilized bovine chromaffin cells. The test is classed as cell-based. As to conditions: for IC50: read-out: concentration reaching 50% inhibitory activity (inhibition of Ca2+ dependent secretion); for effect on Ca2+ dependent (Ca2+-triggered) secretion: peptides at 100 μM concentration, FIG. 7A.
Test [2] has as its system mouse neuron. The test is described as follows: Mouse neuron inhibition assay (Mehta, et al., 1996). In kind it is cell-based. On the procedure:
ii. 47% at 2 μM; 87% at 20 μM, as measured in the mouse neuron inhibition assay described in, for example, Mehta, et al., Proc. Natl. Acad. Sci. USA, 93:10471-10476, 1996 (incorporated herein for purposes of reference).

As to “170-EIDTQNRQIDRIMEKADSNK-189 [ESUP/E20h]”, the IC50 in test [1] came out at 1.8 µM. On to “181-IMEKADSNKTRIDEANQRATKMLGSG-206 [ESUP/E26h]”, for which the IC50 in test [1] is 0.25 µM. “187-SNKTRIDEANQRATKMLGSG-206 [ESUP/A20h, 20-mer peptide encompassing the C-terminal region of SNAP-25 (aa 187-206)]”: the “Inhibitory Activity” value in test [2] (at 2 μM peptide) turned out to be 47%; in test [2] (at 20 μM peptide) it was 87%; in test [1] (at 100 μM peptide, bovine chromaffin cells) it was 65%. In test [1], the IC50 was found to be 12 µM.

Take “MLDEQGEQLER [SNAP-25(49-59), reference compound]”: the “effect on Ca2+ dependent (Ca2+-triggered) secretion” value in test [1] was “did not affect”.

In the case of “TDSSGREMIKANKQLANGTR [ESUP/20Ah^RD, control peptide with the same amino acid composition as ESUP/A20h but in random order, reference compound]”, the “effect on Ca2+ dependent (Ca2+-triggered) secretion” value in test [1] is recorded as “no effect”.
